Experimental data published in patent US20230405003A1, “APPLICATION OF THYMIDINE DERIVATIVE IN PREPARATION OF DRUGS” (ONQUALITY PHARMACEUTICALS CHINA LTD., priority 2020, published 2023).

System: HaCaT cells
Experiment: Relief of 5-FU proliferative toxicity to HaCaT cells (CCK-8 cell survival)
Type: cell-based
Conditions: for Cell Survival Rate (increased percentage of cell survival compared with the Group of 5-FU): 5-Fu 20 μM, HaCaT cells; for activation at 1 µM: compound 1 μM; for activation at 10 µM: compound 10 μM; for activation at 100 µM: compound 100 μM
Procedure: The cultured skin cell HaCaTs were digested, counted, and inoculated into a 96-well plate with 5000-10000 cells in each well. After 24 h of culture, the wells were divided into Group of blank solvent control, Group of 5-FU, Group of 5-FU+thymidine derivative, Group of 5-FU+the combination of thymidine derivative and uridine derivative. […] adding a solution of 5-FU and a solution of thymidine derivative (the final concentrations of 5-FU and thymidine derivative are shown in Table 3, the solution of thymidine is an aqueous solution, while the solutions of thymidine derivatives are all DMSO solutions); Group of 5-FU+the combination of thymidine derivative and uridine derivative: adding a solution of 5-FU and a mixed solution of thymidine derivative and uridine derivative (the final concentrations of the solution of 5-FU and the mixed solution of thymidine derivative+uridine derivative are shown in Table 3, the solution of thymidine is an aqueous solution, while the mixed solutions of thymidine derivative+uridine derivative are all DMSO solutions); Group of blank solvent control: adding the same type of solution as those of the corresponding Group of 5-FU or Group of 5-FU+thymidine derivative (or the mixed solution of thymidine derivative+uridine derivative) in equal volume. Group of blank solvent control was used as control to exclude the influence of the solvents in Group of 5-FU and Group of 5-FU+thymidine derivative (or the mixed solution of thymidine derivative+uridine derivative) on the results. After additional 48 hours of culture, a Cell Counting Kit-8 (CCK-8) detection kit (C0037, purchased from Shanghai Beyotime Biotechnology) is used to determine the cell survival rate, thereby calculating the proliferative toxicity of 5-Fu/5-DFUR on cells and the relieving effect of the thymidine derivative (or the mixed solution of thymidine derivative+uridine derivative) on the proliferative toxicity. Using GraphPad Prism 6.0 software, the results were statistically analyzed by t-test and plotted.
(§1) Table 3 lists the combinations of 5-FU and thymidine derivative (or the mixed solution of thymidine derivative+uridine derivative), and the corresponding experimental results (wherein the data in the column of cell survival indicate the corresponding increased percentage of the cell survivals of Group of 5-FU+thymidine derivative or Group of 5-FU+the combination of thymidine derivative and uridine derivative compared with the Group of 5-FU). FIGS. 3-10 list the experimental results of several representative compounds.
The effect of thymidine derivative or a combination of thymidine derivative and uridine derivative on relieving the proliferative toxicity of a chemotherapeutical drug (5-FU) to HaCaT cells was tested according to the method in Examples 2-29. The test thymidine derivative or the combination of thymidine derivative and uridine derivative, as well as the final concentration of the test compounds were shown in Table 7.
as §1, with “7” for “3”, “15-21” for “3-10”, “exemplary” for “representative”

[1] = selected compound final concentration 0.8 μM
[2] = selected compound final concentration 1.6 μM
[3] = selected compound final concentration 3.13 μM
[4] = selected compound final concentration 6.25 μM
[5] = selected compound final concentration 12.5 μM
[6] = selected compound final concentration 25 μM
[7] = selected compound final concentration 50 μM
[8] = Homo sapiens, HaCaT, increase vs Group of 5-FU, 5-FU 20 μM, 48 h, read-out: Cell Survival Rate
[9] = selected compound final concentration 100 μM

Structure (SMILES)	Cell Survival Rate (increased percentage of cell survival compared with the Group of 5-FU) [1]	Cell Survival Rate (increased percentage of cell survival compared with the Group of 5-FU) [2]	Cell Survival Rate (increased percentage of cell survival compared with the Group of 5-FU) [3]	Cell Survival Rate (increased percentage of cell survival compared with the Group of 5-FU) [4]	Cell Survival Rate (increased percentage of cell survival compared with the Group of 5-FU) [5]	Cell Survival Rate (increased percentage of cell survival compared with the Group of 5-FU) [6]	Cell Survival Rate (increased percentage of cell survival compared with the Group of 5-FU) [7]	activation at 1 µM [8] [%]	activation at 10 µM [8] [%]	further results
Cc1cn([C@H]2C[C@H](O)[C@@H](CO)O2)c(=O)[nH]c1=O [thymidine]										activation at 200 µM (Homo sapiens, HaCaT, increase vs Group of 5-FU, 5-FU 20 μM, compound 200 μM, 48 h, read-out: Cell Survival Rate): 3 to 8%; activation at 1000 µM (Homo sapiens, HaCaT, increase vs Group of 5-FU, 5-FU 20 μM, compound 1000 μM, 48 h, read-out: Cell Survival Rate): 15 to 23%; activation at 1500 µM (Homo sapiens, HaCaT, increase vs Group of 5-FU, 5-FU 20 μM, compound 1500 μM, 48 h, read-out: Cell Survival Rate): 11 to 17%; activation at 2000 µM (Homo sapiens, HaCaT, increase vs Group of 5-FU, 5-FU 20 μM, compound 2000 μM, 48 h, read-out: Cell Survival Rate): 1 to 6%; activation at 3000 µM (Homo sapiens, HaCaT, increase vs Group of 5-FU, 5-FU 20 μM, compound 3000 μM, 48 h, read-out: Cell Survival Rate): -25 to 20%
Cc1cn([C@H]2C[C@H](O)[C@@H](COC(=O)[C@H](C)c3ccc(-c4ccccc4)c(F)c3)O2)c(=O)[nH]c1=O [T29]	19%-25%	19%-27%	35%-42%	43%-50%	69%-76%	54%-62%	48%-54%			
Cc1cn([C@H]2C[C@H](O)[C@@H](COC(=O)C(C)c3ccc(CC(C)C)cc3)O2)c(=O)[nH]c1=O (stereo partly drawn) [T30]			39%-47%	45%-53%	54%-61%	44%-51%	39%-46%			
Cc1cn([C@H]2C[C@H](OC(=O)OC(C)C)[C@@H](COC(=O)OC(C)C)O2)c(=O)[nH]c1=O [T22]								2 to 7	10 to 17	activation at 100 µM [8]: 9 to 16%
Cc1cn([C@H]2C[C@H](O)[C@@H](COC(=O)[C@@H](C)c3ccc(CC(C)C)cc3)O2)c(=O)[nH]c1=O [T31]	23%-30%	29%-38%	37%-43%	41%-47%	44%-51%					
Cc1cn([C@H]2C[C@H](OC(=O)C(C)c3cccc(Oc4ccccc4)c3)[C@@H](CO)O2)c(=O)[nH]c1=O (stereo partly drawn) [T43]	23%-31%	49%-56%	72%-79%	91%-98%	125%-133%	99%-106%	100%-107%			Cell Survival Rate (increased percentage of cell survival compared with the Group of 5-FU) [9]: 34%-41%
Cc1cn([C@H]2C[C@H](O)[C@@H](COC(=O)Cc3ccccc3Nc3c(Cl)cccc3Cl)O2)c(=O)[nH]c1=O [T39]	36%-43%	58%-66%	64%-71%	67%-74%	65%-72%	69%-77%	69%-77%			Cell Survival Rate (increased percentage of cell survival compared with the Group of 5-FU) [9]: 75%-83%
COc1ccc2c(c1)c(CC(=O)OC[C@H]1O[C@@H](n3cc(C)c(=O)[nH]c3=O)C[C@@H]1O)c(C)n2C(=O)c1ccc(Cl)cc1 [T38]	13%-21%	29%-38%	38%-47%	46%-55%	53%-60%	58%-65%	67%-75%			Cell Survival Rate (increased percentage of cell survival compared with the Group of 5-FU) [9]: 55%-63%
Cc1cn([C@H]2C[C@H](OC(=O)Nc3ccccc3)[C@@H](COC(=O)Nc3ccccc3)O2)c(=O)[nH]c1=O [T16]								0 to 5	7 to 14	
Cc1cn([C@H]2C[C@H](OC(=O)[C@@H](C)c3ccc(CC(C)C)cc3)[C@@H](CO)O2)c(=O)[nH]c1=O [T44]				13%-20%	27%-35%	53%-60%	69%-76%			
Cc1cn([C@H]2C[C@H](O)[C@@H](CO[Si](C)(C)C(C)(C)C)O2)c(=O)[nH]c1=O [T18]								6 to 12	7 to 15	
Cc1cn([C@H]2C[C@H](OC(=O)OC(C)(C)C)[C@@H](COC(=O)OC(C)(C)C)O2)c(=O)[nH]c1=O [T23]								2 to 7	5 to 11	activation at 100 µM [8]: 20 to 26%
Cc1cn([C@H]2C[C@H](OC(=O)Cc3ccccc3)[C@@H](COC(=O)Cc3ccccc3)O2)c(=O)[nH]c1=O [T10]								5 to 10	60 to 70	activation at 2 µM (Homo sapiens, HaCaT, increase vs Group of 5-FU, 5-FU 20 μM, compound 2 μM, 48 h, read-out: Cell Survival Rate): 14 to 22%; activation at 5 µM (Homo sapiens, HaCaT, increase vs Group of 5-FU, 5-FU 20 μM, compound 5 μM, 48 h, read-out: Cell Survival Rate): 35 to 45%; activation at 20 µM (Homo sapiens, HaCaT, increase vs Group of 5-FU, 5-FU 20 μM, compound 20 μM, 48 h, read-out: Cell Survival Rate): 65 to 75%; activation at 50 µM (Homo sapiens, HaCaT, increase vs Group of 5-FU, 5-FU 20 μM, compound 50 μM, 48 h, read-out: Cell Survival Rate): 65 to 75%
Cc1cn([C@H]2C[C@H](OC(=O)Oc3ccccc3)[C@@H](COC(=O)Oc3ccccc3)O2)c(=O)[nH]c1=O [T14]								12 to 20	30 to 40	activation at 100 µM [8]: 8 to 15%
Cc1cn([C@H]2C[C@H](OC(=O)NC3CCCC3)[C@@H](COC(=O)NC3CCCC3)O2)c(=O)[nH]c1=O [T12]								0 to 5	9 to 16	
Cc1cn([C@H]2C[C@H](OC(=O)C(C)c3cccc(Oc4ccccc4)c3)[C@@H](COC(=O)C(C)c3cccc(Oc4ccccc4)c3)O2)c(=O)[nH]c1=O (stereo partly drawn) [T46]			27%-34%	34%-41%	48%-55%	61%-68%	65%-72%			Cell Survival Rate (increased percentage of cell survival compared with the Group of 5-FU) [9]: 75%-83%; Cell Survival Rate (increased percentage of cell survival compared with the Group of 5-FU) (selected compound final concentration 200 μM): 54%-62%
